Literature values in patent publication US20100166887A1, “DIBENZO[b,e][1,4]DIAZEPINE MODULATORS OF DOPAMINE RECEPTORS, SEROTONIN RECEPTORS, ADRENERGIC RECEPTORS, ACETYLCHOLINE RECEPTORS, AND/OR HISTAMINE RECEPTORS” (Auspex Pharmaceuticals, Inc., priority 2008, published 2010).

Molecular target: human ether-a-gogo related gene (hERG) potassium channel (Homo sapiens, UniProt Q12809)
Details: Pearlstein et al., J. Med. Chem., 2003

Sequence of human ether-a-gogo related gene (hERG) potassium channel (Q12809 whole entry): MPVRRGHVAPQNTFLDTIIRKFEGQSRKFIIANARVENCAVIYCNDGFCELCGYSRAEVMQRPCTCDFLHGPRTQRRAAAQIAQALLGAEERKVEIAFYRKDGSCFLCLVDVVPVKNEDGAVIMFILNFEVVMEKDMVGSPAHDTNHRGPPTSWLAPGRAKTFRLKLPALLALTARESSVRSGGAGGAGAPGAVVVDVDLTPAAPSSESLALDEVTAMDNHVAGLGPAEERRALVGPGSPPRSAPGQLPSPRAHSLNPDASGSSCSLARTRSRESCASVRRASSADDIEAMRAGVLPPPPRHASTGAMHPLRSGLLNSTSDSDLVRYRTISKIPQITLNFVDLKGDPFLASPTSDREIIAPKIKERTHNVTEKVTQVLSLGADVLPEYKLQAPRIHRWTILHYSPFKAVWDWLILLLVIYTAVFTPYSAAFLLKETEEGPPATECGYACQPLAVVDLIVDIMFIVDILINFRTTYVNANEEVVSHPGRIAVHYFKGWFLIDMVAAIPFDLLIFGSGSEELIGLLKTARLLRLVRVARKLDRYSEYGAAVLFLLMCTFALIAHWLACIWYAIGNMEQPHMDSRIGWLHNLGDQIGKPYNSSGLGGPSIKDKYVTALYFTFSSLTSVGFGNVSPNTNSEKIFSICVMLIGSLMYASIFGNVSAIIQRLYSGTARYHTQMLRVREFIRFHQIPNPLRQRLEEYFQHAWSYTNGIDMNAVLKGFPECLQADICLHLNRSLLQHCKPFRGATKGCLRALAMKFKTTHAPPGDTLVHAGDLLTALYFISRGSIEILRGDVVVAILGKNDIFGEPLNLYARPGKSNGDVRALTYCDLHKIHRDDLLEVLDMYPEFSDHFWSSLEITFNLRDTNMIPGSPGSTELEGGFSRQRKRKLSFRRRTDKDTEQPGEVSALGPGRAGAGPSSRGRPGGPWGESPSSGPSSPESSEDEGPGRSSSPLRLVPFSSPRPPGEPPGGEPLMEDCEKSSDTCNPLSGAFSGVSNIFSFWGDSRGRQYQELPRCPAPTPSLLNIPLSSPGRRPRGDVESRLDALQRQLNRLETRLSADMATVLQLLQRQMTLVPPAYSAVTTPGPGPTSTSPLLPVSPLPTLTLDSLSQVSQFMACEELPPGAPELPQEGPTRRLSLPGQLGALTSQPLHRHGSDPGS

Clc1ccc2c(c1)N=C(N1CCNCC1)c1ccccc1N2 [N-desmethyl clozapine, 8-Chloro-11-(4-piperazino)-5H-dibenzo[b,e][1,4]diazepine]
inhibition of the hERG potassium channel: inhibits
